# Data from patent US3943137A, “Acronycine derivatives” (University of Kansas Endowment Association, priority 1973, dated 1976).
# Several values for one entry are separate records, joined by “and”; a condition that tells them apart may be missing. Identical values can stand only once. Counter-ions that a name gives are not always drawn. Like-named read-outs stand apart in the source and are kept apart here.
# Experiments:
# Type in all cases: physicochemical
# [1] = Hydrolysis of acylacronycinium salts in aqueous solution (no complexing agent); details: for half-life: read-out: t1/2 (hydrolysis)
# [2] = Solubility; details: water; for solubility (qualitative): acetone, benzene
# [3] = Hydrolysis of acylacronycinium salts in presence of complexing agents; details: for half-life at 100 µM: 10^-4 M drug, 25° C., pH 6.0, read-out: Apparent half-life, t1/2; for k (hydrolysis): gentisic acid (0.05 M)
# Experimental: In studying the kinetics of hydrolysis of the aforesaid quaternary acyl acronycinium salts to yield acronycine, it was determined that the increased solubility and the rapid rate of hydrolysis were such that said quaternary derivatives were eminently well suited for use as pro-drugs. Nevertheless, the facility with which hydrolysis occurred in water presented one problem of too rapid precipitation from solution as a consequence of the formation of the slightly soluble acronycine free base. In order to prevent any objectionable hydrolysis of the pro-drug in aqueous solution prior to administration, it was discovered that the hydrolytic rate thereof could be retarded by the formation of intermolecular complexes therewith. […] Moreover, since complexation is an equilibrium phenomenon, extensive complexation occurs in the relatively concentrated drug solution. However, upon dilution with aqueous media such as body fluids, the complex species dissociates, and the pro-drug is then rapidly hydrolyzed to the desired drug species, namely, the acronycine free base. Exemplary of the complexing agents which can be used in aqueous solutions of the acylacronycinium salts to retard the hydrolysis thereof are a wide variety of the organic acids and alkali metal salts thereof, preferably the cyclic and aromatic organic acids, and most preferably the hydroxy aromatic acids. Representative of same are gentisic acid, gamma-resorcylic acid, p-hydroxycinnamic acid, 2-furoic acid, m-hydroxycinnamic acid, 3,4-dimethylcinnamic acid and 3-methylgentisic acid, and the sodium and other salts thereof. A suitably stable and useful formulation of an acylacronycinium salt for use in the preparation of pharmaceutical solutions can be simply made by preparing a powder mixture of the desired acylacronycinium salt and a suitable complexing agent in such proportions and amounts that upon addition of an aqueous solvent, the resulting solution would be of a composition such that the hydrolysis of the acylacronycinium salt would be greatly retarded.
# Among the number of the hydroxy aromatic acids, particularly the hydroxy benzoic acids that have been utilized according to the invention, excellent results have been attained with the preferred 2,5-dihydroxy-benzoic acid (gentisic acid). […] Mathematical analysis of the results dictates describing this system by two equilibria; one to one complex and one to two complex formation (one drug and two ligand), with the 1:1 complex and the free drug hydrolyzing with half-lives of 120 and 23 minutes, respectively. The solid curve of the FIGURE of drawing illustrates the result of such model. Constants required for the t1/2 calculations were as follows:
# and the experimental conditions were:
# Use of suitable complexing agents in aqueous solutions of the acylacronycinium salts retarded the hydrolysis of such compounds. Some of the complexing agents used were the following: sodium gentisate, sodium gamma-resorcylate and sodium cinnamate. Table I reflects the effects of sodium gentisate concentration on the apparent rate of hydrolysis of acetylacronycinium perchlorate.
# Apparent half-line of acetylacronycinium perchlorate
# (10^-^4 M) as a function of sodium gentisate concentration
# in water at 25° C. pH = 6.0.
# Experimental: Twenty-five mg of acetylacronycinium perchlorate and 4.6 g of sodium gentisate were powdered, mixed and placed in a suitable vial and sealed. Just prior to use, 100 ml of water was added to the vial, and the solid material dissolved rapidly, yielding a solution which was about 10^^-3 M with respect to acetylacronycinium perchlorate and about 0.2 Molar with respect to sodium gentisate.
# [4] = acetate buffer (25° C.), replicate runs
# [5] = phosphate buffer (25° C.), replicate runs
# [6] = phosphate buffer, 25° C., pH not given, three runs
# [7] = phosphate buffer, pH 7.60, 25°C
smiles,measurement,setting,value
COc1cc2c(c3c1c(OC(C)=O)c1ccccc1[n+]3C)C=CC(C)(C)O2 [Acetylacronycinium Chloride],k (hydrolysis),"[1]; methanol/water (90/10), pH 0.28",0.000413 s⁻¹
same,half-life,"[1]; methanol/water (90/10), pH 0.28, methanol/water (90/10), pH 0.28",0.467 h
same,k (hydrolysis),"[1]; methanol/water (90/10), pH 1.28",0.000417 s⁻¹
same,half-life,"[1]; methanol/water (90/10), pH 1.28, methanol/water (90/10), pH 1.28",0.462 h
COc1cc2c(c3c1c(OC(C)=O)c1ccccc1[n+]3C)C=CC(C)(C)O2 [Acetylacronycinium Sulfate],k (hydrolysis),[1]; [4],0.000436 s⁻¹ and 0.000423 s⁻¹
same,t1/2 (hydrolysis),[1]; [4],0.455 h
same,half-life,"[1]; acetate buffer, acetate buffer (25° C.), replicate runs",0.442 h
same,k (hydrolysis),[1]; [5],0.0006 s⁻¹ and 0.000586 s⁻¹ and 0.000538 s⁻¹
same,t1/2 (hydrolysis),[1]; [5],0.328 h and 0.358 h
same,half-life,"[1]; phosphate buffer, phosphate buffer (25° C.), replicate runs",0.322 h
COc1cc2c(c3c1c(OC(=O)C(C)C)c1ccccc1[n+]3C)C=CC(C)(C)O2 [Isobutyrylacronycinium Perchlorate],k (hydrolysis),"[1]; phosphate buffer, pH 6.33, 24° C.",0.0003428 s⁻¹
same,half-life,"[1]; phosphate buffer, pH 6.33, phosphate buffer, pH 6.33, 24° C.",0.562 h
COc1cc2c(c3c1c(OC(=O)C(F)(F)F)c1ccccc1[n+]3C)C=CC(C)(C)O2 [Trifluoroacetylacronycinium Perchlorate],reactivity with chloroform,[1]; chloroform,little reaction with chloroform (until water was added)
same,hydrolysis on storage,[1]; overnight in desiccator while still moist,Some hydrolysis occurred overnight
same,reactivity with water and methanol,[1]; water and methanol,reacted very quickly with water and methanol
"COc1cc2c(c3c1c(OC(C)=O)c1ccccc1[n+]3C)C=CC(C)(C)O2 [acetylacronycinium perchlorate, Acetylacronycinium Perchlorate]",solubility (qualitative),[2],"insoluble in benzene, but soluble in water and acetone"
same,increase in solubility over the free base,[2],hundredfold increase in solubility
same,solubility,[2]; read-out: Solubility,~250 µg/mL
same,solubility,[2]; read-out: solubility in water,250 µg/mL
same,"t1/2 and k of hydrolysis, 3,4-dihydroxycinnamic acid complex","[3]; 3,4-dihydroxycinnamic acid, pH 6.5, 25° C., 0.05 M phosphate buffer",roughly comparable to those generated with the sodium gentisate complex
same,"t1/2 and k of hydrolysis, cinnamic acid complex","[3]; cinnamic acid, pH 6.5, 25° C., 0.05 M phosphate buffer",roughly comparable to those generated with the sodium gentisate complex
same,"t1/2 and k of hydrolysis, gamma-resorcylic acid complex","[3]; gamma-resorcylic acid, pH 6.5, 25° C., 0.05 M phosphate buffer",roughly comparable to those generated with the sodium gentisate complex
same,t1/2 1:2 Complex,"[3]; model constant, sodium gentisate, μ = 1.0 M, 25.0°C, pH 6.5, 520 nm",.infin.
same,"t1/2 and k of hydrolysis, p-hydroxycinnamic acid complex","[3]; p-hydroxycinnamic acid, pH 6.5, 25° C., 0.05 M phosphate buffer",roughly comparable to those generated with the sodium gentisate complex
same,rate of hydrolysis with sodium gentisate,"[3]; sodium gentisate, FIGURE",greatly reduced
same,K1:1 (complexation constant),"[3]; sodium gentisate, one drug, one ligand, μ = 1.0 M, 25.0°C, pH 6.5, 520 nm, in M^-1 (unit assumed)","4,081"
same,k1:2 (complexation constant),"[3]; sodium gentisate, one drug, two ligand, μ = 1.0 M, 25.0°C, pH 6.5, 520 nm","80,000"
same,half-life at 1000 µM,"[3]; water, about 10^-3 M drug, about 0.2 Molar sodium gentisate, water, reconstituted powder mixture, read-out: apparent hydrolytic half-life (converted)",~9.5 h
same,half-life at 100 µM,"[3]; water, pH 6, sodium gentisate 0 M/l, water",0.383 h
same,half-life at 100 µM,"[3]; water, pH 6, sodium gentisate 0.1 M/l, water",5.83 h
same,half-life at 100 µM,"[3]; water, pH 6, sodium gentisate 0.2 M/l, water",9.63 h
same,half-life at 100 µM,"[3]; water, pH 6, sodium gentisate 1 × 10^-2 M/l, water",2.08 h
same,half-life at 100 µM,"[3]; water, pH 6, sodium gentisate 2 × 10^-2 M/l, water",2.6 h
same,half-life at 100 µM,"[3]; water, pH 6, sodium gentisate 2.5 × 10^-3 M/l, water",1.55 h
same,half-life at 100 µM,"[3]; water, pH 6, sodium gentisate 4 × 10^-2 M/l, water",3.45 h
same,half-life at 100 µM,"[3]; water, pH 6, sodium gentisate 5 × 10^-3 M/l, water",1.8 h
same,half-life at 100 µM,"[3]; water, pH 6, sodium gentisate 6 × 10^-2 M/l, water",4.33 h
same,half-life at 100 µM,"[3]; water, pH 6, sodium gentisate 8 × 10^-2 M/l, water",4.92 h
same,half-life,"[3]; water, pH 6.5, 1:1 complex with sodium gentisate, two-equilibria model, μ = 1.0 M, 25.0°C, pH 6.5, 520 nm, read-out: half-life of hydrolysis, 1:1 complex",2 h
same,half-life,"[3]; water, pH 6.5, model constant, sodium gentisate, μ = 1.0 M, 25.0°C, pH 6.5, 520 nm, read-out: t1/2 1:1 Complex",1.98 h
same,enthalpy of activation of hydrolysis,[1],about 20 kcal/mole
same,effect of dielectric constant on hydrolysis rate,[1]; increasing dielectric constant,greatly increased
same,"effect of ionic strength, pH, anion, ester group size on hydrolysis rate","[1]; ionic strength, pH (below 8-9), anion, ester group size",remarkably insensitive
"COc1cc2c(c3c1c(=O)c1ccccc1n3C)C=CC(C)(C)O2 [perchlorate salt, acronycinium perchlorate]",solubility (qualitative),[2],soluble in water and insoluble in acetone and benzene
"COc1cc2c(c3c1c(OC(=O)C(C)(C)C)c1ccccc1[n+]3C)C=CC(C)(C)O2 [pivalylacronycinium perchlorate, Pivalylacronycinium Perchlorate]",k (hydrolysis),[1]; [6],0.000717 s⁻¹ and 0.000645 s⁻¹ and 0.000482 s⁻¹
same,t1/2 (hydrolysis),[1]; [6],0.2985 h and 0.3997 h
same,half-life,[1]; [6],0.268 h
"CCC(=O)Oc1c2ccccc2[n+](C)c2c3c(cc(OC)c12)OC(C)(C)C=C3 [propionylacronycinium perchlorate, Propionylacronycinium Perchlorate]",half-life,"[3]; 0.05 m gentisic acid, pH 2.7, gentisic acid (0.05 M), pH 2.70, 25°C, read-out: t1/2 (hydrolysis)",1.71 h
same,half-life,"[3]; 0.05 m gentisic acid, pH 2.78, gentisic acid (0.05 M), pH 2.78, 25°C, read-out: t1/2 (hydrolysis)",1.44 h
same,k (hydrolysis),"[3]; pH 2.70, 25°C",0.0067 min⁻¹
same,k (hydrolysis),"[3]; pH 2.78, 25°C",0.008 min⁻¹
same,k (hydrolysis),"[1]; phosphate buffer, pH 7.50, 25°C",0.000467 s⁻¹
same,half-life,"[1]; phosphate buffer, pH 7.5, phosphate buffer, pH 7.50, 25°C",0.407 h
same,k (hydrolysis),[1]; [7],0.000767 s⁻¹ and 0.000783 s⁻¹
same,t1/2 (hydrolysis),[1]; [7],0.243 h
same,half-life,"[1]; phosphate buffer, pH 7.6, phosphate buffer, pH 7.60, 25°C",0.248 h
